{
  "source": "patent US8686224B2",
  "about": "“Plant defense signal peptides” (priority 2005, dated 2014)",
  "key": {"[1]": {"tested_on": "PDF1.2 and PR-1 gene expression", "assay": "Spraying of four-week-old soil-grown plants, qRT-PCR of PDF1.2 and PR-1", "type": "in vivo, Arabidopsis thaliana", "excerpt": "[…]1 and […]2 mutants are unable to respond to AtPEP1. To further examine the importance of […]1 and […]2 in AtPep1 signaling, the expression level of WRKY transcription factor genes, WRKY22, WRKY29, WRKY33. WRKY53 and WRKY55, were monitored by qRT-PCR after supplying AtPep1 to wild type Arabidopsis and T-DNA insertional mutants of […]1 and […]2. These WRKY genes were reported to be induced by the fungal PAMP, chitin (Wan et al., Plant Cell 20: 471-481, 2008), and the bacterial PAMPs, […] et al., Cell 125:749-760, 2006). […] In the double mutants, […] […] We also examined the effect of supplying AtPep1 to the double mutants on the expression of the antimicrobial protein genes, defensin (PDF1.2) and pathogenesis related protein (PR-1) […] peptides are known to induced these genes (Huffaker and Ryan, Proc. Natl. Acad. Sci. USA 104: 10732-10736, 2007). Since the expression levels of PDF1.2 and PR-1 gene in Arabidopsis seedlings grown in liquid medium were already high, the method of supplying AtPep1 was changed. Four-week-old Arabidopsis plants grown in soil were sprayed with 1 μM AtPep1 in 0.01% Silwet L-77, and subjected to qRT-PCR analysis after 6 hours."}, "[2]": {"tested_on": "P. syringae pv. tomato DC3000 (Pst DC3000)", "assay": "Pst DC3000 inoculation of Arabidopsis leaves with peptide pre-infiltration", "type": "in vivo, Pseudomonas syringae", "excerpt": "The resistance to P. irregulare requires the JA signaling pathway in Arabidopsis (Staswick et al, Plant J. 15: 747-754, 1998), and AtPep peptides induced PDF1.2, a marker gene for the JA response (Huffaker et al., Proc. Natl. Acad. Sci. USA 103: 10098-10103, Huffaker and Ryan, Proc. Natl. Acad. Sci. USA 104: 10732-10736, 2007). […] In order to examine this possibility, Arabidopsis plants were inoculated with P. syringae pv. tomato DC3000 (Pst DC3000) with or without AtPep1 pre-infiltration. Pst DC3000 was extracted from the infected leaves 4 days after infection and colony forming units (cfu/cm^2) were calculated. […] The reduction of Pst DC3000 growth was also not observed when the double mutant, pepr1-1/pepr2-1, was pre-infiltrated with AtPep1. […] Pre-infiltration of AtPep2-6 also attenuated Pst DC3000 growth to different degrees.\nTo assess the importance of AtPEPR1 and AtPEPR2 in the resistance to Pst DC3000 after infiltration of AtPep1, T-DNA insertional mutants were inoculated. When 1 μM AtPep1 was infiltrated into leaves one day prior to Pst DC3000 inoculation, the size of the necrotic regions were reduced in both wild type and single mutant lines, pepr1-1 and pepr2-1. […] Similar results were obtained when another set of mutant lines, pepr1-2, pepr2-2 and pepr1-2/pepr2-2, was used."}, "[3]": {"tested_on": "wild type tobacco suspension-cultured cells", "assay": "Medium alkalinization of wild type and GUS expressing tobacco cells", "type": "cell-based", "settings": "wild type tobacco (b358 also GUS expressing) cells"}, "[4]": {"settings": "sprayed 1 μM in 0.01% Silwet L-77, 6 hours, wild type"}, "[5]": {"settings": "1 μM one day prior, pepr1-1/pepr2-1"}},
  "note": "“Also recorded” adds a separate entry of the source.",
  "data": [
    {"substance": "H-ATKVKAKQRGKEKVSSGRPGQHN-OH [AtPep1]", "values": [
      {"measurement": "induction of PDF1.2", "setting": "[1]; [4]", "result": 30, "unit": "fold"},
      {"measurement": "induction of PR-1", "setting": "[1]; [4]", "result": 60, "unit": "fold"},
      {"measurement": "induction of PDF1.2 and PR-1 in the double mutants", "setting": "[1]; sprayed 1 μM, 6 hours", "result": "not induced"},
      {"measurement": "bacterial growth reduced to", "setting": "[2]; 1 μM infiltrated one day prior to inoculation, wild type", "result": "1/100"},
      {"measurement": "bacterial growth reduced to", "setting": "[2]; 1 μM one day prior, pepr1-1", "result": "1/25"},
      {"measurement": "colony growth in the double mutants", "setting": "[2]; [5]", "result": "no decrease in colony growth"},
      {"measurement": "symptom development in double mutants", "setting": "[2]; [5]", "result": "did not affect symptom development"},
      {"measurement": "bacterial growth reduced to", "setting": "[2]; 1 μM one day prior, pepr2-1", "result": "1/100"},
      {"measurement": "size of the necrotic regions", "setting": "[2]; 1 μM one day prior, wild type and single mutants pepr1-1 and pepr2-1", "result": "reduced"},
      {"measurement": "Pst DC3000 growth in double mutant pepr1-1/pepr2-1", "setting": "[2]; pre-infiltration", "result": "not observed"},
      {"measurement": "attenuation of Pst DC3000 in fad3,7,8, npr1-1 and sid2-2 mutants", "setting": "[2]; pre-infiltration", "result": "differentially diminished"},
      {"measurement": "effect on Pst DC3000 growth compared with flg22 pre-infiltration", "setting": "[2]; pre-infiltration, wild type", "result": "more effective than flg22 pre-infiltration"},
      {"measurement": "Pst DC3000 growth in leaves after pre-infiltration", "setting": "[2]; wild type, cfu/cm^2 4 days after infection, AtPep1 10 nM solution", "result": "reduced Pst DC3000 growth in leaves"},
      {"measurement": "alkalinization of the medium", "setting": "[3]", "result": "no alkalinization was detected; also recorded: did not respond"}
    ]}
  ]
}
